In ChEMBL document CHEMBL5241092, “The antibacterial activity of fluoroquinolone derivatives: An update (2018-2021)” (2021):
In brackets after ≈: the same amount, converted by molar mass. Values belong to the compound of their own block, whether it stands above or below them.

Columns and labels:
Staphylococcus aureus [1] = test: Antibacterial activity against Staphylococcus aureus; type: functional
Staphylococcus aureus [2] = test: Antibacterial activity against methicillin resistant Staphylococcus aureus 3; type: functional
Staphylococcus aureus [3] = test: Antibacterial activity against methicillin resistant Staphylococcus aureus 2; type: functional
Staphylococcus aureus [4] = test: Antibacterial activity against methicillin resistant Staphylococcus aureus 1; type: functional
Staphylococcus aureus [5] = test: Antibacterial activity against methicillin resistant Staphylococcus aureus; type: functional
Salmonella enteritidis = test: Antibacterial activity against Salmonella enteritidis; type: functional, Salmonella enterica subsp. enterica serovar Enteritidis; conditions: Salmonella enterica
Escherichia coli = test: Antibacterial activity against Escherichia coli; type: functional
Pseudomonas aeruginosa = test: Antibacterial activity against Pseudomonas aeruginosa; type: functional
Clostridioides difficile = test: Antibacterial activity against Clostridioides difficile; type: functional
[6] = test system: Staphylococcus epidermidis; test: Antibacterial activity against Staphylococcus epidermidis; type: functional
Bacillus subtilis = test: Antibacterial activity against Bacillus subtilis; type: functional

SMILES: CCn1cc(C(=O)O)c(=O)c2cc(F)c(N3CCN(Cc4nnc(-c5ccc(OC)cc5)o4)CC3)cc21
MIC (Staphylococcus aureus [1]): 0.25 µg/mL (≈ 0.493 µM) | MIC (Staphylococcus aureus [2]): 0.25 µg/mL (≈ 0.493 µM) | MIC (Staphylococcus aureus [3]): 0.25 µg/mL (≈ 0.493 µM) | MIC (Staphylococcus aureus [4]): 0.25 µg/mL (≈ 0.493 µM)

SMILES: O=C(O)c1cn(-c2ccc(F)cc2)c2cc(N3CCN(Cc4nc5ccc(Cl)cc5c(=O)[nH]4)CC3)c(F)cc2c1=O
MIC (Staphylococcus aureus [1]): 0.125 µg/mL (≈ 0.216 µM) | MIC (Staphylococcus aureus [5]): 0.125 µg/mL (≈ 0.216 µM)

SMILES: CCn1cc(C(=O)O)c(=O)c2cc(F)c(N3CCN(C(=O)CN4C(=O)S/C(=C\c5ccc(OC)cc5)C4=O)CC3)cc21
MIC (Salmonella enteritidis): 0.25 µg/mL (≈ 0.42 µM) | MIC (Escherichia coli): 0.25 µg/mL (≈ 0.42 µM) | MIC (Pseudomonas aeruginosa): 0.25 µg/mL (≈ 0.42 µM)

SMILES: O=C(O)c1cn(C2CC2)c2cc(N3CCN(Cc4nc5cc(Cl)ccc5c(=O)[nH]4)CC3)c(F)cc2c1=O
MIC (Staphylococcus aureus [1]): 0.016 µg/mL (≈ 0.0305 µM) | MIC (Staphylococcus aureus [5]): 0.016 µg/mL (≈ 0.0305 µM)

SMILES: COc1c(N2CCN(C(=O)Cn3cc(CN4C(=O)C(=O)c5cc(F)ccc54)nn3)C(C)C2)c(F)cc2c(=O)c(C(=O)O)cn(C3CC3)c12 (stereo not given)
MIC (Staphylococcus aureus [1]): ≤ 0.03 µg/mL | MIC (Staphylococcus aureus [2]): ≤ 0.03 µg/mL | MIC (Staphylococcus aureus [3]): ≤ 0.03 µg/mL | MIC (Staphylococcus aureus [4]): ≤ 0.03 µg/mL

SMILES: COc1ccc2nc(CN3CCN(c4cc5c(cc4F)c(=O)c(C(=O)O)cn5C4CC4)CC3)[nH]c(=O)c2c1
MIC (Staphylococcus aureus [1]): 0.016 µg/mL (≈ 0.0308 µM) | MIC (Staphylococcus aureus [5]): 0.016 µg/mL (≈ 0.0308 µM)

SMILES: COc1ccc2nc(CN3CCN(c4cc5c(cc4F)c(=O)c(C(=O)O)cn5-c4ccc(F)cc4)CC3)[nH]c(=O)c2c1
MIC (Staphylococcus aureus [1]): 0.125 µg/mL (≈ 0.218 µM) | MIC (Staphylococcus aureus [5]): 0.125 µg/mL (≈ 0.218 µM)

SMILES: CCn1cc(C(=O)O)c(=O)c2cc(F)c(N3CCN(C(=O)CN4C(=O)S/C(=C\c5ccc(N(C)C)cc5)C4=O)CC3)cc21
MIC (Salmonella enteritidis): 0.25 µg/mL (≈ 0.411 µM) | MIC (Escherichia coli): 0.25 µg/mL (≈ 0.411 µM) | MIC (Pseudomonas aeruginosa): 0.25 µg/mL (≈ 0.411 µM)

MIC50 (Clostridioides difficile): 0.125 µg/mL (≈ 0.33 µM) | MIC90 (Clostridioides difficile): 0.5 µg/mL (≈ 1.32 µM)
SMILES: Cc1c(-c2cnc(N)c(C#N)c2)c(F)cc2c(=O)c(C(=O)O)cn(C3CC3)c12

SMILES: CN[C@H](CC(C)C)C(=O)N[C@H]1C(=O)N[C@@H](CC(N)=O)C(=O)N[C@H]2C(=O)N[C@H]3C(=O)N[C@H](C(=O)N[C@H](C(=O)O)c4cc(O)cc(O)c4-c4cc3ccc4O)[C@H](O)c3ccc(c(Cl)c3)Oc3cc2cc(c3O[C@@H]2O[C@H](CO)[C@@H](O)[C@H](O)[C@H]2O[C@H]2C[C@](C)(N)[C@H](O)[C@H](C)O2)Oc2ccc(cc2Cl)[C@H]1O [VANCOMYCIN]
MIC50 (Clostridioides difficile): 2 µg/mL (≈ 1.38 µM) | MIC90 (Clostridioides difficile): 4 µg/mL (≈ 2.76 µM)

SMILES: CCn1cc(C(=O)O)c(=O)c2cc(F)c(N3CCN(C(=O)CN4C(=O)S/C(=C\c5ccc(F)cc5)C4=O)CC3)cc21
MIC (Salmonella enteritidis): 0.25 µg/mL (≈ 0.429 µM) | MIC (Escherichia coli): 0.25 µg/mL (≈ 0.429 µM) | MIC (Pseudomonas aeruginosa): 0.25 µg/mL (≈ 0.429 µM)

SMILES: O=C(O)c1cn(-c2ccc(F)cc2)c2cc(N3CCN(Cc4nc5cc(Cl)ccc5c(=O)[nH]4)CC3)c(F)cc2c1=O
MIC (Staphylococcus aureus [1]): 0.125 µg/mL (≈ 0.216 µM) | MIC (Staphylococcus aureus [5]): 0.125 µg/mL (≈ 0.216 µM)

SMILES: O=C(O)c1cn(-c2ccc(F)cc2)c2cc(N3CCN(Cc4nc5ccccc5c(=O)[nH]4)CC3)c(F)cc2c1=O
MIC (Staphylococcus aureus [1]): 0.125 µg/mL (≈ 0.23 µM) | MIC (Staphylococcus aureus [5]): 0.125 µg/mL (≈ 0.23 µM)

SMILES: CCn1cc(C(=O)O)c(=O)c2cc(F)c(N3CCN(C(=O)CN4C(=O)S/C(=C\c5ccc(Cl)cc5Cl)C4=O)CC3)cc21
MIC (Salmonella enteritidis): 0.25 µg/mL (≈ 0.395 µM) | MIC (Escherichia coli): 0.25 µg/mL (≈ 0.395 µM) | MIC (Pseudomonas aeruginosa): 0.25 µg/mL (≈ 0.395 µM)

MIC (Staphylococcus aureus [1]): < 0.125 µg/mL | MIC [6]: < 0.125 µg/mL | MIC (Bacillus subtilis): < 0.125 µg/mL
SMILES: O=C(O)c1cn(-c2ccc(F)cc2)c2cc(N3CCNCC3)c(F)cc2c1=O [SARAFLOXACIN]

SMILES: O=C(O)c1cn(C2CC2)c2cc(N3CCN(Cc4nc5ccc(Cl)cc5c(=O)[nH]4)CC3)c(F)cc2c1=O
MIC (Staphylococcus aureus [1]): 0.016 µg/mL (≈ 0.0305 µM) | MIC (Staphylococcus aureus [5]): 0.016 µg/mL (≈ 0.0305 µM)

MIC (Staphylococcus aureus [1]): 0.015 µg/mL (≈ 0.0229 µM) | MIC [6]: 0.015 µg/mL (≈ 0.0229 µM) | MIC (Bacillus subtilis): 0.015 µg/mL (≈ 0.0229 µM)
SMILES: CCOc1cc(OCC)nc(/N=N/N2CCN(c3c(F)cc4c(=O)c(C(=O)C(C(C)=O)C(=O)OC)cn(C5CC5)c4c3OC)CC2)n1 (stereo not given)

SMILES: CCn1cc(C(=O)O)c(=O)c2cc(F)c(N3CCN(C(=O)CN4C(=O)S/C(=C\c5ccccc5)C4=O)CC3)cc21
MIC (Salmonella enteritidis): 0.5 µg/mL (≈ 0.886 µM) | MIC (Escherichia coli): 0.5 µg/mL (≈ 0.886 µM) | MIC (Pseudomonas aeruginosa): 0.5 µg/mL (≈ 0.886 µM)

MIC (Staphylococcus aureus [1]): 0.015 µg/mL (≈ 0.0235 µM) | MIC [6]: 0.015 µg/mL (≈ 0.0235 µM) | MIC (Bacillus subtilis): 0.015 µg/mL (≈ 0.0235 µM)
SMILES: CCOc1cc(OCC)nc(/N=N/N2CCN(c3cc4c(cc3F)c(=O)c(C(=O)C(C(=O)OC)C(=O)OC)cn4C3CC3)CC2)n1

MIC50 (Clostridioides difficile): 2 µg/mL (≈ 11.7 µM) | MIC90 (Clostridioides difficile): 4 µg/mL (≈ 23.4 µM)
SMILES: Cc1ncc([N+](=O)[O-])n1CCO [METRONIDAZOLE]

SMILES: CCn1cc(C(=O)O)c(=O)c2cc(F)c(N3CCN(C(=O)CN4C(=O)S/C(=C\c5ccc(Cl)cc5)C4=O)CC3)cc21
MIC (Salmonella enteritidis): 0.25 µg/mL (≈ 0.417 µM) | MIC (Escherichia coli): 0.25 µg/mL (≈ 0.417 µM) | MIC (Pseudomonas aeruginosa): 0.25 µg/mL (≈ 0.417 µM)
